Measurements published in PMC11489226 (Archives of Toxicology, 2024).
Values joined by “and” are separate entries in the source; they are usually repeats but may differ in a detail not shown here. Equal values may be shown once.

Key:
CYP1A2 = target: T1, CYP1A2 (Homo sapiens, UniProt P05177); test: Metabolism in transgenic HEK293 cells expressing CYP1A2 (LC-MS/MS of supernatant)
T1 sequence (P05177 1-516): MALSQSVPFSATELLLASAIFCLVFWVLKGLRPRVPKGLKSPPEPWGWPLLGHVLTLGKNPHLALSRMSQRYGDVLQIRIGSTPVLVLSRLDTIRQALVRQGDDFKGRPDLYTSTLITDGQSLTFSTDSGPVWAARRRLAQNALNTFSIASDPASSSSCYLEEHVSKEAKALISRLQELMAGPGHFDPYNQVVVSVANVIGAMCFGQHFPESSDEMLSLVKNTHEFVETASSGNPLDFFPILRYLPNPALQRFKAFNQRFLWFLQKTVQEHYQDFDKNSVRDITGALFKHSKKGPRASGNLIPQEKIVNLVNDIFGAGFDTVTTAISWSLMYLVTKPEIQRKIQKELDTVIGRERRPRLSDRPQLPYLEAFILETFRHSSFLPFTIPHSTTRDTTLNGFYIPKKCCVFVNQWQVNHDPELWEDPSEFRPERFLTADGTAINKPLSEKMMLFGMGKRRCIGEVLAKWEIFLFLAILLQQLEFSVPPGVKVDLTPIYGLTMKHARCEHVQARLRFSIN
Method: (§1) For the generation of transgenic cell lines, we used semi-adherent HEK293 cells (DSMZ, ACC305, human embryonic kidney cells) which were cultured on a daily basis in DMEM medium supplemented with 10% (FCS) and 1% penicillin/streptomycin. In a first step CYP1A2, CYP2C8, CYP2C9, CYP3A4, CYP2A6, and CYP2E1 cDNA were cloned into the plasmid pcDNATM3.1/V5-His TOPO® using human liver RNA as a template and using the following primers: CYP1A2 for5′-[…]-3′, CYP1A2 rev 5′-[…]-3′; CYP2C8 for 5′-[…]-3′, CYP2C8 rev 5′-[…]-3′; CYP2C9 for 5′-[…]-3′, CYP2C9 rev 5′-[…]-3′; CYP3A4 for 5′-[…]-3′, CYP3A4 rev 5′-[…]-3′, CYP2A6 for 5′-[…]-3′, CYP2A6 rev 5′-[…]-3′; CYP2E1 for 5′-[…]-3′, CYP2E1 rev 5′-[…]-3′. Final constructs were verified with Sanger DNA sequencing and restriction digestion. For transfection, 3 × 10^6 HEK293 cells were pre-incubated in a 10 cm dish in DMEM medium with 10% FCS, but without antibiotics, for 18 to 24 h. When the cells reached approximately 70% confluency, they were transfected using TransIT-LT1 transfection reagent (Biozol, Eiching, Germany). The TransIT-LT1 reagent was warmed to room temperature and vortexed. 1.63 mL Opti-MEM, 16.25 µL plasmid DNA (1 µg/µL), and 48.75 µL TransIT-LT1 reagent were mixed and incubated for 15 to 30 min. The mixture was then added dropwise to the medium of the cells, and the cells were incubated again at 37 °C and 5% CO2. After 24 h, the medium was replaced with standard medium and geneticin was added for selection (1 mg/mL). Cells were selected for 6–8 weeks in bulk culture, and single cell clones were obtained subsequently by limiting dilution. Each clone was checked for insertion by PCR using genomic DNA as a template.
(§2) Parallel samples were run without the addition of PCBs. At a confluence of 80%, PCBs (20 μM each, dissolved in ethanol) were added and cells were incubated for 24 h before harvest of supernatants. Supernatants were diluted 1:2 with 80 μL acetate buffer 0.1 M (pH = 5.3). 100 μL of this dilution were further incubated with 100 μL of ammonium acetate buffer 0.1 M (pH = 5.3) and 5 μL of β-Glucuronidase/Arylsulfatase enzyme overnight in a drying oven at 37 °C for enzymatic hydrolysis to release conjugated compounds. 50 μL of a mix of internal standards (10 ng/mL) and 600 μL of methanol were added to the samples, then mixed by vortexing for 1 min and centrifuged for 10 min at 3400g. The individual supernatants were transferred to glass LC vials and evaporated to approximately 50 μL at 45 °C under a gentle stream of nitrogen. Finally, 0.1 mol/ L ammonium acetate buffer was added to a final volume of 100 μL and then transferred to an insert for analysis.
(§3) HEK293 cells overexpressing the respective CYP enzymes were seeded onto 6-well plates and were treated with or without 10 µM of the respective probe drug in DMEM medium for 24 hours at 37 °C and 5 % CO2. After incubation 200 µL DMEM were collected, cells were washed with PBS and adherent cells were lysed in 500 µL methanol for 20 minutes. Analytes were measured by LC-MS/MS either in methanol cell lysates or in DMEM supernatant.
(§4) 50 µL of DMEM samples were protein precipitated by adding 200 µL of methanol and were centrifuged for 20 min, 17,000 g and 4°C. Supernatants were diluted in water or 40 % methanol according to dilution factor. Methanol cell lysates were diluted ½ with water and centrifuged for 20 min, 17,000 g and 4°C. 5 µL of the processed samples were injected for LC-MS analysis.

CYP2C8 = target: T2, CYP2C8 (Homo sapiens, UniProt P10632); test: Metabolism in transgenic HEK293 cells expressing CYP2C8; format: in vitro ADME; conditions: 20 µM parent PCB, 24 h, supernatant
T2 construct: V5-His (vector-encoded) (C); expressed in transfected cells
T2 sequence (P10632 1-490): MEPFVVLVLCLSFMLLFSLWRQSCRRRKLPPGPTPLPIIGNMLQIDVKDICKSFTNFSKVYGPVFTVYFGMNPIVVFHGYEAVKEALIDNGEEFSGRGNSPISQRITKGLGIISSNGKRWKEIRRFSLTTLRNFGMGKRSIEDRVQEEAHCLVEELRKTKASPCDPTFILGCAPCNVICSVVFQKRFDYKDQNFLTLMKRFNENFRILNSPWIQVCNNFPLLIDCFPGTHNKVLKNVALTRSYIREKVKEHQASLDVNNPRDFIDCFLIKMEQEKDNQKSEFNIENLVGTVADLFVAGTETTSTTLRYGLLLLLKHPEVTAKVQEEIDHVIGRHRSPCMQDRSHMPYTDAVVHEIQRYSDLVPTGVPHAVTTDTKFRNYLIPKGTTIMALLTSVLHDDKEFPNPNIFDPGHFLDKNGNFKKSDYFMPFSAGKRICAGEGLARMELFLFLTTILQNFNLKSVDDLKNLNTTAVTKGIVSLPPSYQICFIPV
Method: as §1
as §2, with “analysis. […]” for “analysis.”

CYP2E1 = CYP2E1 (Homo sapiens, UniProt P05181); test: Metabolism in transgenic HEK293 cells expressing CYP2E1; conditions: 20 µM parent PCB, 24 h, supernatant
Method: as §1, §2, §3, §4

CYP3A4 = CYP3A4 (Homo sapiens, UniProt P08684); test: Metabolism in transgenic HEK293 cells expressing CYP3A4; conditions: 20 µM parent PCB, 24 h, supernatant
Method: as §1, §2, §3, §4

CYP2A6 = target: T3, CYP2A6 (Homo sapiens, UniProt P11509); test: Metabolism in transgenic HEK293 cells expressing CYP2A6; format: in vitro ADME; parameters: V5-His (vector-encoded) (C); expressed in transfected cells; conditions: 20 µM parent PCB, 24 h; for Quantification of metabolites generated from PCB28, 52, and 101: supernatant; for Metabolite concentration formed, range across cell clones: HEK293CYP2A6 cell lines
T3 sequence (P11509 1-494): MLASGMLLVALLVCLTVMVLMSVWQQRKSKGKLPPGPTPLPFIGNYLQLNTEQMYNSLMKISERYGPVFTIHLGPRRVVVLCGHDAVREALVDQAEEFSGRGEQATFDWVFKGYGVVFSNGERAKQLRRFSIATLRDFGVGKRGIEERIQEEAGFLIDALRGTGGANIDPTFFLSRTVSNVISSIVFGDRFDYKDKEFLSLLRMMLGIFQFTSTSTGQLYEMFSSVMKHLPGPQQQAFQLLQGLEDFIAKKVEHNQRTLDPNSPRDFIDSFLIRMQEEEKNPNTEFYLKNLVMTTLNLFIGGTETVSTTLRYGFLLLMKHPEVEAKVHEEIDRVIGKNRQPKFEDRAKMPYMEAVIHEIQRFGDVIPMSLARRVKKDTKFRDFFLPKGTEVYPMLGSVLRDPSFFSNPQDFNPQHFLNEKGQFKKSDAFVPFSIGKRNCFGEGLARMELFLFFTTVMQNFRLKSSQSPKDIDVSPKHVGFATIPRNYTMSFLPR
Method: as §1, §2, §3, §4

HEK293CYP2A6 cells = test: Micronucleus assay in HEK293CYP2A6 cells; format: cell-based, human; conditions: positive control, 10 µm, 24 h
Method: Transgenic HEK293CYP2A6 and HEK293CYP2C9 cells were cultured in T25 flasks, with a seeding density of 1 × 10^6 cells per flask at 37 °C with 5% CO2. Cells were allowed to grow for 24 h geneticin free before PCBs were added (20 µM or 30 µM). Controls included cells grown in the presence of 1% ethanol (vol/vol) (negative control) or […] 4-nitroquinoline 1-oxide (positive control). Following further incubation for 24 h, cells were synchronized by adding Cytochalasin B. Subsequently, cells were harvested by trypsinization, centrifuged (2,000g, 10 min), and washed with DPBS (Dulbecco’s PBS). For hypotonic shock, 4 °C cold potassium chloride solution was added to the cells under agitation. Cells were completely resuspended and incubated at room temperature for 5 min. After centrifugation (2,500g, 10 min), the supernatant was discarded. To fix the cells, they were treated with a methanol/acetic acid solution (− 20 °C), with a minimum incubation time of 15 min at room temperature. Following centrifugation (2,500g, 10 min), the supernatant was discarded, and the fixation process was repeated at least three times. Finally, the samples were dissolved in 1 mL of fixative solution and incubated overnight at 4 °C. For analysis, two to three drops from each sample were placed on a glass slide, with intermittent heating of the slide. Subsequently, the cells were visualized with acridine orange, and using a fluorescence microscope (Leica DM6000B, Filter I3 450–490 nm), 2,000 cells per sample were counted.

Chain of CYP2E1 (P05181 whole entry): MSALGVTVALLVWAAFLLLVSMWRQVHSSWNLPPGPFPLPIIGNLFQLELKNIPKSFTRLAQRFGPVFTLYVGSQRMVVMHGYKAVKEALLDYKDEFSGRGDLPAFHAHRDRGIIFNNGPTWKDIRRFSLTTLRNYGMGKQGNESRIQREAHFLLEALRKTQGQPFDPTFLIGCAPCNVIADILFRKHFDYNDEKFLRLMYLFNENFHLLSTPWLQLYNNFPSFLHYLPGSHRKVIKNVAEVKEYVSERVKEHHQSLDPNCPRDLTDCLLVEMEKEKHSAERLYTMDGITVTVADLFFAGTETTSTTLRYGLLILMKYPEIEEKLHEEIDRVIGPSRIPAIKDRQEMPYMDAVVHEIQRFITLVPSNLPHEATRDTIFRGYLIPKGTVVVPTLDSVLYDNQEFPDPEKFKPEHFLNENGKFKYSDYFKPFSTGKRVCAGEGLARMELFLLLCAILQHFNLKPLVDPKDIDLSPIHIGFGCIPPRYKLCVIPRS
Chain of CYP3A4 (P08684 whole entry): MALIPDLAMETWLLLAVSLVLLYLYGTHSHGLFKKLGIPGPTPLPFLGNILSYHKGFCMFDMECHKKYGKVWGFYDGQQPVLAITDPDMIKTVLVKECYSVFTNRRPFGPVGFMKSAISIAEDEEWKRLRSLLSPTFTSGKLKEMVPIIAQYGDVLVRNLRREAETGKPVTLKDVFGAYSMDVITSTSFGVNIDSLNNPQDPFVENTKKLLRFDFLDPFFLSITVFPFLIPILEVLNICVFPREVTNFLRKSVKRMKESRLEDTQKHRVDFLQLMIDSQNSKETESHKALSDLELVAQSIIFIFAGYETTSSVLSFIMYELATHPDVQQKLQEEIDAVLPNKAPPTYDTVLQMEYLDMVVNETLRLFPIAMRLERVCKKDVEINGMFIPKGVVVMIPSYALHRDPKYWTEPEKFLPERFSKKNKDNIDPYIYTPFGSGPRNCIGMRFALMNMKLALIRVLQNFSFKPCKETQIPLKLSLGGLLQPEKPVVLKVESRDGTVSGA

Structure (SMILES)	Conversion product (CYP1A2; HEK293CYP1A2, 10 µM substrate, 24 h)	Quantification of metabolites generated from PCB28, 52, and 101 (CYP2C8; CYP2C8 Clone A3)	Quantification of metabolites generated from PCB28, 52, and 101 (CYP2C8; CYP2C8 Clone D8)	Quantification of metabolites generated from PCB28, 52, and 101 (CYP2C8; CYP2C8 Clone D9)	Quantification of metabolites generated from PCB28, 52, and 101 (CYP2E1; CYP2E1 Clone B4)	Quantification of metabolites generated from PCB28, 52, and 101 (CYP2E1; CYP2E1 Clone B5)	Quantification of metabolites generated from PCB28, 52, and 101 (CYP2E1; CYP2E1 Clone E6)	Quantification of metabolites generated from PCB28, 52, and 101 (CYP3A4; CYP3A4 Clone B4)	Quantification of metabolites generated from PCB28, 52, and 101 (CYP3A4; CYP3A4 Clone D10)	Quantification of metabolites generated from PCB28, 52, and 101 (CYP3A4; CYP3A4 Clone E6)	Quantification of metabolites generated from PCB28, 52, and 101 (CYP2A6; CYP2A6 Clone B7)	Quantification of metabolites generated from PCB28, 52, and 101 (CYP2A6; CYP2A6 Clone C4)	Quantification of metabolites generated from PCB28, 52, and 101 (CYP2A6; CYP2A6 Clone C5)	Metabolite concentration formed, range across cell clones (CYP2A6)	Metabolite concentration formed, range across cell clones (CYP1A2; HEK293CYP1A2 cell clones, 20 µM PCB28, 24 h)	Micronucleus formation compared to the negative control ethanol (HEK293CYP2A6 cells)
Cn1c(=O)c2c(ncn2C)n(C)c1=O [Caffeine, reference compound]	Paraxanthine	–	–	–	–	–	–	–	–	–	–	–	–	–	–	–
Oc1cc(Cl)c(-c2cc(Cl)ccc2Cl)cc1Cl [4-OHCB52, 2,2′,5,5′-tetrachloro-4-biphenylol]	–	<LOQ	0,1 nM	<LOQ	5,55 nM	8,9 nM	10,23 nM	0,23 nM	0,72 nM	0,54 nM	319,55 nM	1029,16 nM	30,78 nM	9.48 to 316.89 µg/L	–	–
Oc1ccc(-c2ccc(Cl)cc2)c(Cl)c1Cl [4′-OHCB25, 2′,3′,4-trichloro-4′-biphenylol]	–	–	–	–	–	–	–	–	–	–	–	–	–	–	0.15–0.23 µg/L and 0.56–0.84 nM	–
O=[N+]([O-])c1cc[n+]([O-])c2ccccc12 [4-nitroquinoline-(1)-oxide, reference compound]	–	–	–	–	–	–	–	–	–	–	–	–	–	–	–	consistent and significant elevation
Oc1cc(Cl)cc(-c2cc(Cl)ccc2Cl)c1Cl [3-OHCB52, 2,2′,5,5′-tetrachloro-3-biphenylol]	–	<LOQ	0,09 nM	<LOQ	0,38 nM	0,59 nM	0,74 nM	0,21 nM	0,66 nM	0,45 nM	0,87 nM	0,75 nM	–	0.23–0.27 µg/L and 0.74–0.87 nM	–	–
